Reference: patent publication US10053471B2, “Azabenzimidazole derivatives” (Boehringer Ingelheim International GmbH, priority 2015, dated 2018)

Molecular target: AMPK α1β1γ1 (Homo sapiens (Human), UniProt Q13131+Q9Y478)
Assay: in vitro AMPK activation assay (ADP Glo Luminescence Kinase test)
Assay type: biochemical
Conditions: for Emax: maximal achievable activation in the tested concentration range, percent of control max (positive control without test substance = 100%), read-out: AMPK α1β1γ1 PoCmax; for EC50: recombinant human AMPK alpha1/beta1/gamma1, ADP-Glo luminescence read-out
Method: Recombinant human AMPK (containing subunits alpha1, beta1 and gamma1) was obtained from a baculovirus expression system. The 3 subunits were expressed together, affinity-purified via a GST-tag fused to the alpha 1 subunit and deep-frozen in storage buffer (50 mM Tris-HCl pH 8, 300 mM NaCl, 1 mM TCEP and 10% glycerol) at −80° C. until use. The activity of the AMPK protein was determined using the ADP Glo® Luminescence Kinase test (Promega; V9103X). In this homogeneous test the amount of ADP formed by the kinase reaction is quantified by a luciferin-luciferase reaction using luminescence as read-out. The luminescence signal obtained correlates with the amount of ADP resulting from the kinase reaction and thus correlates with the activity of the protein kinase.
The test compounds were dissolved in 100% DMSO at a concentration of 10 mM and in a first step diluted in DMSO to a concentration of 5 mM, followed by serial dilution steps in 100% DMSO. Dilution factor and number of dilution steps may vary. Typically 8 different concentrations by 1:5 dilutions were prepared, further dilutions of the substances were carried out with test buffer (20 mM Hepes (pH 7.0), 15 mM MgCl2, 0.025% BSA, 0.01% Brij 35) until a concentration was reached which was 5 times above the final test concentration. 2 μl aliquots of these dilutions were transferred into a 384-well Optiplate (Perkin Elmer, #6007290). Typically the start concentration for serial dilutions in the assay is 10 μM. Typically AMPK was diluted to 25 μg/ml in the test buffer and 4 μl of this dilution were used in the kinase test (final concentration of AMPK is 10 μg/ml in a total volume of 10 μl for the kinase reaction). Kinase concentrations may vary depending on activity of the preparation batches. After 10 minutes incubation at room temperature 4 μl of a mix containing 2.5 μM substrate (H-His-Met-Arg-Ser-Ala-Met-Ser-Gly-Leu-His-Leu-Val-Lys-Arg-Arg-OH Trifluoroacetate salt/HMRSAMSGLHLVKRR from Bachem, Cat. No. H5938) and 75 μM ATP in test buffer were added to each well and the incubation was continued for 60 minutes at room temperature.
Positive controls are the reaction mixtures that contain no test substance; negative controls (blanks) are reaction mixtures that contain no AMPK enzyme.
After 60 minutes, 10 μl ADP-Glo® solution (ADP-Glo Reagent #V912B Promega) (heated to room temperature) were added to each well and incubation was continued for 40 minutes. Then 20 μl Kinase detection mix (Detection Buffer #V913B Promega; Kinase Detection Substrate #V914B Promega) were added and incubated for additional 40 minutes at room temperature.
All incubations were done in sealed plates in the dark.
The plates were read with an Envision Luminescence Reader (Perkin-Elmer).
Data Evaluation and Calculation:
The output file of the reader is a csv file that contains the well number and measured RLU. For data evaluation and calculation, the measurement of the negative control was set as 0% control and the measurement of the positive control was set as 100% control. Based on these values the % value for the measurement of each substance concentration was calculated using Assay Explorer software (Accelrys). Activating compounds achieve % of control values above 100%. The IC50 values were calculated from the % control values using Assay Explorer software. Calculation: [y=(a−d)/(1+(x/c)^b)+d], a=low value, d=high value; x=conc M; c=IC50 M; b=hill; y=% ctrl. The maximal achievable activation of a compound in the tested concentration range is reported as percent of control max (PoCmax).

Sequence of AMPK α1β1γ1 (Q13131 whole entry): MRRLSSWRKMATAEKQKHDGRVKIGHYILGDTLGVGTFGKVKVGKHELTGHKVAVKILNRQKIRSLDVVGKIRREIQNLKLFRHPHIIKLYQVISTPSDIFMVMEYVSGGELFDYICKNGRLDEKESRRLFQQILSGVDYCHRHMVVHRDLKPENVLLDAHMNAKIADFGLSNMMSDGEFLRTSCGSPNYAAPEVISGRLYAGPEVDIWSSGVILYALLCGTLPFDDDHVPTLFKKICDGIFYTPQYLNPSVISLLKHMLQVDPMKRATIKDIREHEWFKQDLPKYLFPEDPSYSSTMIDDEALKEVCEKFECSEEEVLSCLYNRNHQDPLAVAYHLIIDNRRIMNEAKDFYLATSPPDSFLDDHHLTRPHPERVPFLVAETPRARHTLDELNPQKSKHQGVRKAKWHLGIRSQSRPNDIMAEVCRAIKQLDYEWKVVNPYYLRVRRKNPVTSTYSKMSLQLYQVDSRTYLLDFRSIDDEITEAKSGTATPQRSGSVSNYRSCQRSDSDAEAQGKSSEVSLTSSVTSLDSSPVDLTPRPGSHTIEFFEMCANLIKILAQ
Sequence of AMPK α1β1γ1 (Q9Y478 whole entry): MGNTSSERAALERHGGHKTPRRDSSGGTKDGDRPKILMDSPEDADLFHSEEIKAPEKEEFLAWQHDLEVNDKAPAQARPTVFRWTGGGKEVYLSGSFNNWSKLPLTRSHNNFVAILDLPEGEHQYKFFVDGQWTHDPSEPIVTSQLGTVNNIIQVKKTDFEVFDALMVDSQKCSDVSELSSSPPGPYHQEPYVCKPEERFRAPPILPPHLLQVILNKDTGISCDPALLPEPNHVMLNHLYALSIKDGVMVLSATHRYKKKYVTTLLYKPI
Sequence of AMPK α1β1γ1 (P54619 whole entry partner): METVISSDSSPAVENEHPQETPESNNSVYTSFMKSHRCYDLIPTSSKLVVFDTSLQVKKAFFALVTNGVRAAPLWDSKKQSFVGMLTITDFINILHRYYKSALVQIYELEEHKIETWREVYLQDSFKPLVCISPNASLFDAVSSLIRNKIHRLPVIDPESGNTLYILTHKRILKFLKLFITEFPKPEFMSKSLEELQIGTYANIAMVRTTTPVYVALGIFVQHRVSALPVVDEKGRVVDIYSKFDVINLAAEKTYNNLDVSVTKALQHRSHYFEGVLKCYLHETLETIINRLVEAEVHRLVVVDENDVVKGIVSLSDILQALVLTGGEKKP

Row | Emax [%] | EC50 [nM] | SMILES
1 | 540 | 284 | CS(C)(=O)=Nc1ccc(-c2ccc(-c3nc4[nH]c(O[C@@H]5CO[C@H]6[C@@H]5OC[C@H]6O)nc4cc3Cl)cc2)cc1F [Example 1, ({4-[4-(2-{[(3R,3aR,6R,6aR)-6-Hydroxy-hexahydrofuro[3,2-b]furan-3-yl]oxy}-6-chloro-3H-imidazo[4,5-b]pyridin-5-yl)phenyl]-2-fluorophenyl}imino)dimethyl-λ^6-sulfanone]
2 | 496 | 115 | CS(C)(=O)=Nc1cc(F)c(-c2ccc(-c3nc4[nH]c(O[C@@H]5CO[C@H]6[C@@H]5OC[C@H]6O)nc4cc3Cl)cc2)c(F)c1 [Example 2, ({4-[4-(2-{[(3R,3aR,6R,6aR)-6-Hydroxy-hexahydrofuro[3,2-b]furan-3-yl]oxy}-6-chloro-3H-imidazo[4,5-b]pyridin-5-yl)phenyl]-3,5-difluorophenyl}imino)dimethyl-λ^6-sulfanone]
3 | 480 | 302 | CS(C)(=O)=Nc1cc(F)c(-c2ccc(-c3nc4[nH]c(O[C@@H]5CO[C@H]6[C@@H]5OC[C@H]6O)nc4cc3Cl)cc2)cc1F [Example 3, ({4-[4-(2-{[(3R,3aR,6R,6aR)-6-Hydroxy-hexahydrofuro[3,2-b]furan-3-yl]oxy}-6-chloro-3H-imidazo[4,5-b]pyridin-5-yl)phenyl]-2,5-difluorophenyl}imino)dimethyl-λ^6-sulfanone]
4 | 421 | 3560 | CS(C)(=O)=Nc1c(F)cc(-c2ccc(-c3nc4[nH]c(O[C@@H]5CO[C@H]6[C@@H]5OC[C@H]6O)nc4cc3Cl)cc2)cc1F [Example 4, ({4-[4-(2-{[(3R,3aR,6R,6aR)-6-Hydroxy-hexahydrofuro[3,2-b]furan-3-yl]oxy}-6-chloro-3H-imidazo[4,5-b]pyridin-5-yl)phenyl]-2,6-difluorophenyl}imino)dimethyl-λ^6-sulfanone]
5 | 538 | 60 | CS(C)(=O)=Nc1ccc(-c2ccc(-c3nc4[nH]c(O[C@@H]5CO[C@H]6[C@@H]5OC[C@H]6O)nc4cc3Cl)cc2)c(F)c1 [Example 5, ({4-[4-(2-{[(3R,3aR,6R,6aR)-6-Hydroxy-hexahydrofuro[3,2-b]furan-3-yl]oxy}-6-chloro-3H-imidazo[4,5-b]pyridin-5-yl)phenyl]-3-fluorophenyl}imino)dimethyl-λ^6-sulfanone]
6 | 490 | 450 | CS(C)(=O)=Nc1ccc(-c2ccc(-c3nc4[nH]c(O[C@@H]5CO[C@H]6[C@@H]5OC[C@H]6O)nc4cc3Cl)cc2)c(F)c1F [Example 6, ({4-[4-(2-{[(3R,3aR,6R,6aR)-6-Hydroxy-hexahydrofuro[3,2-b]furan-3-yl]oxy}-6-chloro-3H-imidazo[4,5-b]pyridin-5-yl)phenyl]-2,3-difluorophenyl}imino)dimethyl-λ^6-sulfanone]
7 | 640 | 125 | CS(C)(=O)=Nc1ccc(-c2ccc(-c3nc4[nH]c(O[C@@H]5CO[C@H]6[C@@H]5OC[C@H]6O)nc4cc3Cl)c(F)c2)cc1 [Example 7, ({4-[4-(2-{[(3R,3aR,6R,6aR)-6-Hydroxy-hexahydrofuro[3,2-b]furan-3-yl]oxy}-6-chloro-3H-imidazo[4,5-b]pyridin-5-yl)-3-fluorophenyl]phenyl}imino)dimethyl-λ^6-sulfanone]
8 | 659 | 255 | CS(C)(=O)=Nc1ccc(-c2ccc(-c3nc4[nH]c(O[C@@H]5CO[C@H]6[C@@H]5OC[C@H]6O)nc4cc3Cl)cc2F)cc1 [Example 8, ({4-[4-(2-{[(3R,3aR,6R,6aR)-6-Hydroxy-hexahydrofuro[3,2-b]furan-3-yl]oxy}-6-chloro-3H-imidazo[4,5-b]pyridin-5-yl)-2-fluorophenyl]phenyl}imino)dimethyl-λ^6-sulfanone]
9 | 700 | 282 | CS(C)(=O)=Nc1ccc(-c2ccc(-c3nc4[nH]c(O[C@@H]5CO[C@H]6[C@@H]5OC[C@H]6O)nc4cc3Cl)c(F)c2F)cc1 [Example 9, ({4-[4-(2-{[(3R,3aR,6R,6aR)-6-Hydroxy-hexahydrofuro[3,2-b]furan-3-yl]oxy}-6-chloro-3H-imidazo[4,5-b]pyridin-5-yl)-2,3-difluorophenyl]phenyl}imino)dimethyl-λ^6-sulfanone]
10 | 479 | 193 | CS(C)(=O)=Nc1cnc(-c2ccc(-c3nc4[nH]c(O[C@@H]5CO[C@H]6[C@@H]5OC[C@H]6O)nc4cc3Cl)cc2)c(F)c1 [Example 10, ({6-[4-(2-{[(3R,3aR,6R,6aR)-6-Hydroxy-hexahydrofuro[3,2-b]furan-3-yl]oxy}-6-chloro-3H-imidazo[4,5-b]pyridin-5-yl)phenyl]-5-fluoropyridin-3-yl}imino)dimethyl-λ^6-sulfanone]
11 | 423 | 1200 | COc1nc(-c2ccc(N=S(C)(C)=O)cc2)ccc1-c1nc2[nH]c(O[C@@H]3CO[C@H]4[C@@H]3OC[C@H]4O)nc2cc1Cl [Example 11, ({4-[5-(2-{[(3R,3aR,6R,6aR)-6-Hydroxy-hexahydrofuro[3,2-b]furan-3-yl]oxy}-6-chloro-3H-imidazo[4,5-b]pyridin-5-yl)-6-methoxypyridin-2-yl]phenyl}imino)dimethyl-λ^6-sulfanone]
12 | 608 | 109 | CS(C)(=O)=Nc1ccc(-c2ccc(-c3nc4nc(O[C@@H]5CO[C@H]6[C@@H]5OC[C@H]6O)[nH]c4cc3F)cc2)cc1 [Example 12, ({4-[4-(2-{[(3R,3aR,6R,6aR)-6-Hydroxy-hexahydrofuro[3,2-b]furan-3-yl]oxy}-6-fluoro-1H-imidazo[4,5-b]pyridin-5-yl)phenyl]phenyl}imino)dimethyl-λ^6-sulfanone]
13 | 523 |  | CS(=N)(=O)c1ccc(-c2ccc(-c3nc4[nH]c(O[C@@H]5CO[C@H]6[C@@H]5OC[C@H]6O)nc4cc3Cl)cc2)c(F)c1 (stereo partly drawn) [Example 13, {4-[4-(2-{[(3R,3aR,6R,6aR)-6-Hydroxy-hexahydrofuro[3,2-b]furan-3-yl]oxy}-6-chloro-3H-imidazo[4,5-b]pyridin-5-yl)phenyl]-3-fluorophenyl}(imino)methyl-λ^6-sulfanone]
14 | 484 | 68 | CS(C)(=O)=Nc1ccc(-c2ccc(-c3nc4nc(O[C@@H]5CO[C@H]6[C@@H]5OC[C@H]6O)[nH]c4cc3F)cc2)c(F)c1 [Example 14, ({4-[4-(2-{[(3R,3aR,6R,6aR)-6-Hydroxy-hexahydrofuro[3,2-b]furan-3-yl]oxy}-6-fluoro-1H-imidazo[4,5-b]pyridin-5-yl)phenyl]-3-fluorophenyl}imino)dimethyl-λ^6-sulfanone]
15 | 426 | 344 | COc1nc(-c2ccc(N=S(C)(C)=O)cc2F)ccc1-c1nc2[nH]c(O[C@@H]3CO[C@H]4[C@@H]3OC[C@H]4O)nc2cc1Cl [Example 15, ({4-[5-(2-{[(3R,3aR,6R,6aR)-6-Hydroxy-hexahydrofuro[3,2-b]furan-3-yl]oxy}-6-chloro-3H-imidazo[4,5-b]pyridin-5-yl)-6-methoxypyridin-2-yl]-3-fluorophenyl}imino)dimethyl-λ^6-sulfanone]
16 | 475 | 74 | CS(C)(=O)=Nc1ccc(-c2cc(F)c(-c3nc4nc(O[C@@H]5CO[C@H]6[C@@H]5OC[C@H]6O)[nH]c4cc3F)c(F)c2)cc1 [Example 16, ({4-[4-(2-{[(3R,3aR,6R,6aR)-6-Hydroxy-hexahydrofuro[3,2-b]furan-3-yl]oxy}-6-fluoro-1H-imidazo[4,5-b]pyridin-5-yl)-3,5-difluorophenyl]phenyl}imino)dimethyl-λ^6-sulfanone]
17 | 475 | 84 | CS(C)(=O)=Nc1ccc(-c2cc(F)c(-c3nc4nc(O[C@@H]5CO[C@H]6[C@@H]5OC[C@H]6O)[nH]c4cc3Cl)c(F)c2)cc1 [Example 17, ({4-[4-(2-{[(3R,3aR,6R,6aR)-6-Hydroxy-hexahydrofuro[3,2-b]furan-3-yl]oxy}-6-chloro-1H-imidazo[4,5-b]pyridin-5-yl)-3,5-difluorophenyl]phenyl}imino)dimethyl-λ^6-sulfanone]
